Assay results: US12258328B2, “6-membered heteroaryl-containing aminopyridine compounds as EGFR inhibitors” (YUHAN CORPORATION, priority 2021, dated 2025)
Like-named read-outs stand apart in the source and are kept apart here.

Experiments:
EGFR del19/T790M/C797S = EGFR del19/T790M/C797S (Homo sapiens, UniProt P00533, C797S/DEL746-750/T790M); assay: Biochemical EGFR kinase assay (Lance Ultra TR-FRET), triple mutant del19/T790M/C797S
Method: (§1) Biochemical EGFR kinase assays were conducted using Lance Ultra time-resolved fluorescence resonance energy transfer (TR-FRET) technology from Perkin-Elmer. Compounds of the invention were initially diluted to 20 mM in 100% DMSO for storage and made into kinase buffer solution to create a compound concentration ranging from 0.003 μM and 10 μM.
(§2) Each kinase reactions were incubated at room temperature for 1 hour and then stopped by the addition of 4 μL of stop solution (10 mM EDTA). The specific Europium-labeled-anti-phosphopeptide antibody (PerkinElmer, AD0069) diluted in LANCE detection buffer was then added to a final concentration of 2 nM. After 60 minutes incubation at room temperature the LANCE signal was measured on an EnVision Multilabel Reader (Perkin-Elmer). Excitation wavelength was set at 320 nm and emission monitored at 615 nm (donor) and 665 nm (acceptor). The IC50 values were determined using GraphPad prism software (GraphPad Software, Inc., San Diego, CA, USA).

EGFR L858R/C797S = EGFR L858R/C797S (Homo sapiens, UniProt P00533, C797S/L858R); assay: Biochemical EGFR kinase assay (Lance Ultra TR-FRET), double mutant L858R/C797S
Method: as §1, §2

EGFR del19/C797S = EGFR del19/C797S (Homo sapiens, UniProt P00533, C797S/DEL746-750); assay: Biochemical EGFR kinase assay (Lance Ultra TR-FRET), double mutant del19/C797S
Method: as §1, §2

EGFR wildtype = EGFR wildtype (Homo sapiens, UniProt P00533); assay: Biochemical EGFR kinase assay (Lance Ultra TR-FRET), wildtype
Method: as §1, §2

EGFR L858R/T790M/C797S = EGFR L858R/T790M/C797S (Homo sapiens, UniProt P00533, C797S/L858R/T790M); assay: Biochemical EGFR kinase assay (Lance Ultra TR-FRET), triple mutant L858R/T790M/C797S
Method: as §1, §2

[1] = IC50 del19/T790M/C797S (nM) 100 μM ATP, 100 μM ATP
[2] = Km ATP, read-out: IC50 del19/T790M/C797S (nM) Km ATP
[3] = IC50 L858R/C797S (nM) 100 μM ATP, 100 μM ATP
[4] = Km ATP, read-out: IC50 L858R/C797S (nM) Km ATP
[5] = IC50 del19/C797S (nM) 100 μM ATP, 100 μM ATP
[6] = Km ATP, read-out: IC50 del19/C797S (nM) Km ATP
[7] = IC50 WT (nM) 100 μM ATP, 100 μM ATP
[8] = Km ATP, read-out: IC50 WT (nM) Km ATP
[9] = IC50 L858R/T790M/C797S (nM) 100 μM ATP, 100 μM ATP
[10] = Km ATP, read-out: IC50 L858R/T790M/C797S (nM) Km ATP
[11] = ATP at Km, read-out: IC50 del19/T790M/C797S, Km ATP
[12] = ATP at Km, read-out: IC50 del19/C797S, Km ATP
[13] = ATP at Km, read-out: IC50 WT, Km ATP
[14] = ATP at Km, read-out: IC50 L858R/T790M/C797S, Km ATP
[15] = IC50 del19/T790M/C797S, 100 μM ATP
[16] = ATP at Km, read-out: IC50 L858R/C797S, Km ATP

Sequence of EGFR del19/T790M/C797S (P00533 with tags, fused parts or gaps DEL746-750/T790M/C797S): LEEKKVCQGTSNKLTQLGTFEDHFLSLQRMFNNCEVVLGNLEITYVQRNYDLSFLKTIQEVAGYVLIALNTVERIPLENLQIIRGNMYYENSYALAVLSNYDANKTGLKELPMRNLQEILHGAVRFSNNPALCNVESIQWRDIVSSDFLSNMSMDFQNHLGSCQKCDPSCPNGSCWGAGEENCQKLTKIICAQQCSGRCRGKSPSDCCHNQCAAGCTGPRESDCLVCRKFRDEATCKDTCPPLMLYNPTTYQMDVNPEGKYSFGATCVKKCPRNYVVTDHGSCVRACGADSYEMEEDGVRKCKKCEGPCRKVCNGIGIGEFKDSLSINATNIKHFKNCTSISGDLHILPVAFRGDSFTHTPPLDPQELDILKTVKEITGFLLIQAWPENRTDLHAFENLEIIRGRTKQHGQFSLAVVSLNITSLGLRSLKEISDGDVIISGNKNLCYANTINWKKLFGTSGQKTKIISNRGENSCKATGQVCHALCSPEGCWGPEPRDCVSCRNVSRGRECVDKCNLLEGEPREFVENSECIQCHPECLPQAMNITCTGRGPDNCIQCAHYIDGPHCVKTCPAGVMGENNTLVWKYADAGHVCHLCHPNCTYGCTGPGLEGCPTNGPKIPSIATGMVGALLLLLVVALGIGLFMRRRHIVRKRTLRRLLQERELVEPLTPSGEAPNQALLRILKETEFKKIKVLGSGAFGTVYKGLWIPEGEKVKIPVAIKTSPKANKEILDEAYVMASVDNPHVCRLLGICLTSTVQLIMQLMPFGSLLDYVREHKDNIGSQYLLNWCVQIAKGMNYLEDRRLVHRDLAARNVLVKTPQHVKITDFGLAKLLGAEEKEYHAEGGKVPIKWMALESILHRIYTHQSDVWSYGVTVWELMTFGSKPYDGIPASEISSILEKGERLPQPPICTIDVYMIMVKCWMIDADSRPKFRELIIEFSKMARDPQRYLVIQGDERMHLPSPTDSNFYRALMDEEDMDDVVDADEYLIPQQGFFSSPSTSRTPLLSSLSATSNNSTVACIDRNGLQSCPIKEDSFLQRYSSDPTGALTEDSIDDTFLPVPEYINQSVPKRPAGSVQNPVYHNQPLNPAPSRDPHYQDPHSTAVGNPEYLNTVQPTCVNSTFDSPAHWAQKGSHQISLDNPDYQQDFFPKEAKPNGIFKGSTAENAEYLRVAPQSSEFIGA
Sequence of EGFR del19/C797S (P00533 with tags, fused parts or gaps DEL746-750/C797S): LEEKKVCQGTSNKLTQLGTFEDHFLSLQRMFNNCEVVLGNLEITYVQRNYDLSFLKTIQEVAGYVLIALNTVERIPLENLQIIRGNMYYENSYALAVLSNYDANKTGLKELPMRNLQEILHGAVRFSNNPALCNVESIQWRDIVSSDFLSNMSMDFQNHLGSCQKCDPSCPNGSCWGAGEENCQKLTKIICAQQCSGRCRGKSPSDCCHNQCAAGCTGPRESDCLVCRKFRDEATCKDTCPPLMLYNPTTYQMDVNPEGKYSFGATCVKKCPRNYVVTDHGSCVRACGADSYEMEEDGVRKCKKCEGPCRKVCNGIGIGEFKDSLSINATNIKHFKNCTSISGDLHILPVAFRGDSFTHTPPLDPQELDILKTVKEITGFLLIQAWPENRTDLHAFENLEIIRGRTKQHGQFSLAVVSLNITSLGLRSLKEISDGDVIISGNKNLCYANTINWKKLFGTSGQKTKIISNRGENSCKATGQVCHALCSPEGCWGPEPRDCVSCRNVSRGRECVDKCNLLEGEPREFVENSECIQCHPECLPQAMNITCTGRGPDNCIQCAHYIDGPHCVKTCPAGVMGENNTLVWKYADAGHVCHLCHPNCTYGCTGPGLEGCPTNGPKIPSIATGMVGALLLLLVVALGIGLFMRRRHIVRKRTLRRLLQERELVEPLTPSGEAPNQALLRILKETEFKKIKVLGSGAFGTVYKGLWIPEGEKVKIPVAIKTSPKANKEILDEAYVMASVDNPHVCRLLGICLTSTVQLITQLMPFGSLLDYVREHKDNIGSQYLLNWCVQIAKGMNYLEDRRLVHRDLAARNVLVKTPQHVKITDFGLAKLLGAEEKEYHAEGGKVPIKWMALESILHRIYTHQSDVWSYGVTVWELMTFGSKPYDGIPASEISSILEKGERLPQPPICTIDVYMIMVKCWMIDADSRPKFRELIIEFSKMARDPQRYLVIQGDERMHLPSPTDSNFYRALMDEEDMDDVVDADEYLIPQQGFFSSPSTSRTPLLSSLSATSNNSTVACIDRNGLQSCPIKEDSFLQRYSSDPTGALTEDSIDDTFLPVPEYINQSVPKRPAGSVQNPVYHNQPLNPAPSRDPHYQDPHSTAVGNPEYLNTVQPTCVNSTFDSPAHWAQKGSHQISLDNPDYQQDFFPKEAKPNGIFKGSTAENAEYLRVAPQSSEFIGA
Sequence of EGFR L858R/C797S (P00533 25-1210 C797S/L858R): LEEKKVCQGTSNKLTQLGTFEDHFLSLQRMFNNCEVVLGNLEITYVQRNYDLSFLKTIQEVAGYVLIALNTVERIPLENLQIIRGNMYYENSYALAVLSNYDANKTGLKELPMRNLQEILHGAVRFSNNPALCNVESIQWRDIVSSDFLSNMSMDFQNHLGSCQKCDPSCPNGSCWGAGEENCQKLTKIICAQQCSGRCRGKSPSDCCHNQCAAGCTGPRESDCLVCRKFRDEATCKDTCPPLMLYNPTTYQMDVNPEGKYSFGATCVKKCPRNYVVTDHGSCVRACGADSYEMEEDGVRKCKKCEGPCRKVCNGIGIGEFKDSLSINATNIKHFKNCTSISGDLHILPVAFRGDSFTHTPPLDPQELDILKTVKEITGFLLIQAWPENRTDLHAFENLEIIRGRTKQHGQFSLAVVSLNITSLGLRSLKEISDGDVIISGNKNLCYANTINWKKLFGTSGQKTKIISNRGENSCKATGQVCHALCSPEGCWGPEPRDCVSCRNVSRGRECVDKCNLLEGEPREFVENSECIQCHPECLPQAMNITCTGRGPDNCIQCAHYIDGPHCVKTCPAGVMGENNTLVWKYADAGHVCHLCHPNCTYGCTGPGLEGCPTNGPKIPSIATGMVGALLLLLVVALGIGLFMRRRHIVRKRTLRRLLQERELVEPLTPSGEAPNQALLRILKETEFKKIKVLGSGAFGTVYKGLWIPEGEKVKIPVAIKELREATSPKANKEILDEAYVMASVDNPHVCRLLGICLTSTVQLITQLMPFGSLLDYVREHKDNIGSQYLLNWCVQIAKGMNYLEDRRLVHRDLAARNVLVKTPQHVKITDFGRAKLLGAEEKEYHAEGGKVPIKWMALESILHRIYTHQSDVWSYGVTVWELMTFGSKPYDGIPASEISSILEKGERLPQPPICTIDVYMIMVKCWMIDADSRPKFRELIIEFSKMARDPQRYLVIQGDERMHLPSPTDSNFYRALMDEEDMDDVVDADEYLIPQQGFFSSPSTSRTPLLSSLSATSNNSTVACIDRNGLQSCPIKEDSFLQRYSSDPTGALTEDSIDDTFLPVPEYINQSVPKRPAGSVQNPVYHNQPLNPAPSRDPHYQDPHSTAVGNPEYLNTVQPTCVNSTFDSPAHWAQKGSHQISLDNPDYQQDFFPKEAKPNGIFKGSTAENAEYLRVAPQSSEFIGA
Sequence of EGFR wildtype (P00533 25-1210): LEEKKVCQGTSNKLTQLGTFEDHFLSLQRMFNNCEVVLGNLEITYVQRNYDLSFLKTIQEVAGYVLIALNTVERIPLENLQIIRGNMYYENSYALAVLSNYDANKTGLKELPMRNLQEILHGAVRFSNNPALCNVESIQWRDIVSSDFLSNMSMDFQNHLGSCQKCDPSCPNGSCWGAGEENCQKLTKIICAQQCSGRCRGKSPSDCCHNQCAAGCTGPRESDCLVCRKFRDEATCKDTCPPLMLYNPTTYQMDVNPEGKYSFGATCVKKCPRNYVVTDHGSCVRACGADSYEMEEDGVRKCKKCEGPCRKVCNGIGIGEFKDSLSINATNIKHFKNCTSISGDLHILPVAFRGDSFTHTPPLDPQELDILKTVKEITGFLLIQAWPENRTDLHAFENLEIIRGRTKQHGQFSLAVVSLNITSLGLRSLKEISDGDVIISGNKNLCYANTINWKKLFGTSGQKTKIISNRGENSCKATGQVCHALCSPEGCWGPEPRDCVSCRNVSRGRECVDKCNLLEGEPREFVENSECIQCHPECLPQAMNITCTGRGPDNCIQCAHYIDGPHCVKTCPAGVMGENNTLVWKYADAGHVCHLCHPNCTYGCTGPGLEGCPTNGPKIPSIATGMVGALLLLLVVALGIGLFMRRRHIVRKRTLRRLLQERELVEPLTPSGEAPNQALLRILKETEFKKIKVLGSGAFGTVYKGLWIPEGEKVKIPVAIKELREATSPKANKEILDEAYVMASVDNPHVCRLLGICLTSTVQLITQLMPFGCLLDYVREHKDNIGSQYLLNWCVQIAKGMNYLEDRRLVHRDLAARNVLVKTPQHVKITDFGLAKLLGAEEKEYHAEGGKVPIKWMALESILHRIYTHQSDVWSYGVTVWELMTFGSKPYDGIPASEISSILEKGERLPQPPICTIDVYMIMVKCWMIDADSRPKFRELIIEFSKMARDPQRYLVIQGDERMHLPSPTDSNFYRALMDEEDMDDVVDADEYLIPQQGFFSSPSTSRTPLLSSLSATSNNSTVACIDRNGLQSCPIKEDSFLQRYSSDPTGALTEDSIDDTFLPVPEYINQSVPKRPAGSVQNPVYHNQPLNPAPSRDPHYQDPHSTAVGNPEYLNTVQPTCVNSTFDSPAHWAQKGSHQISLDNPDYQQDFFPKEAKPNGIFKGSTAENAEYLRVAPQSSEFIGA

IC50 (EGFR del19/T790M/C797S; [1]) [nM]	IC50 (EGFR del19/T790M/C797S; [2]) [nM]	IC50 (EGFR L858R/C797S; [3]) [nM]	IC50 (EGFR L858R/C797S; [4]) [nM]	IC50 (EGFR del19/C797S; [5]) [nM]	IC50 (EGFR del19/C797S; [6]) [nM]	IC50 (EGFR wildtype; [7]) [nM]	IC50 (EGFR wildtype; [8]) [nM]	IC50 (EGFR L858R/T790M/C797S; [9]) [nM]	IC50 (EGFR L858R/T790M/C797S; [10]) [nM]	IC50 (EGFR del19/T790M/C797S; [11]) [nM]	SMILES	further results
0.1	0.2	6.5	0.3	0.4	0.2	> 10000		0.1			C[C@]1(O)CC[C@@H](Nc2cc(Nc3ccnc(-c4cnn(S(=O)(=O)C5CC5)c4)n3)ncc2-c2ccc(F)cn2)CC1 [Example 6, (1s,4s)-4-((6′-((2-(1-(Cyclopropylsulfonyl)-1H-pyrazol-4-yl)pyrimidin-4-yl)amino)-5-fluoro-[2,3′-bipyridin]-4′-yl)amino)-1-methylcyclohexan-1-ol]	
0.2	0.4	12.4	0.6		0.5	> 10000	3	0.2	0.1		C[C@]1(O)CC[C@@H](Nc2cc(Nc3ccnc(-c4cnn(S(=O)(=O)C5CC5)c4)n3)ncc2-c2ccc(C#N)cn2)CC1 [Example 7, 6′-((2-(1-(Cyclopropylsulfonyl)-1H-pyrazol-4-yl)pyrimidin-4-yl)amino)-4′-(((1s,4s)-4-hydroxy-4-methylcyclohexyl)amino)-[2,3′-bipyridine]-5-carbonitrile]	
0.2	0.4	6.3	0.4	0.7	0.4	8890	1	0.2	0.1		Cc1ccc(-c2cnc(Nc3ccnc(-c4cnn(S(=O)(=O)C5CC5)c4)n3)cc2N[C@H]2CC[C@@](C)(O)CC2)nc1 [Example 8, (1s,4s)-4-((6′-((2-(1-(Cyclopropylsulfonyl)-1H-pyrazol-4-yl)pyrimidin-4-yl)amino)-5-methyl-[2,3′-bipyridin]-4′-yl)amino)-1-methylcyclohexan-1-ol]	
0.1		1.9	0.2	0.7	0.2	167	1	0.3	0.1		CN1CCN(Cc2ccc(-c3cnc(Nc4ccnc(-c5cnn(S(=O)(=O)C6CC6)c5)n4)cc3N[C@H]3CC[C@@](C)(O)CC3)nc2)CC1 [Example 9, (1s,4s)-4-((6′-((2-(1-(Cyclopropylsulfonyl)-1H-pyrazol-4-yl)pyrimidin-4-yl)amino)-5-((4-methylpiperazin-1-yl)methyl)-[2,3′-bipyridin]-4′-yl)amino)-1-methylcyclohexan-1-ol]	
0.4	0.4	1	1			> 10000	6.9	0.5	0.1		COc1ccc(-c2cnc(Nc3ccnc(-c4cnn(S(=O)(=O)C5CC5)c4)n3)cc2N[C@H]2CC[C@@](C)(O)CC2)nn1 [Example 53, (1s,4s)-4-((2-((2-(1-(Cyclopropylsulfonyl)-1H-pyrazol-4-yl)pyrimidin-4-yl)amino)-5-(6-methoxypyridazin-3-yl)pyridin-4-yl)amino)-1-methylcyclohexan-1-ol]	
			95.8		41.2		> 10000		0.5		C[C@]1(O)CC[C@@H](Nc2cc(Nc3ccnc(-c4cnn(S(=O)(=O)C5CC5)c4)n3)ncc2-c2cnc(OC(F)F)cn2)CC1 [Example 128, (1s,4s)-4-((2-((2-(1-(Cyclopropylsulfonyl)-1H-pyrazol-4-yl)pyrimidin-4-yl)amino)-5-(5-(difluoromethoxy)pyrazin-2-yl)pyridin-4-yl)amino)-1-methylcyclohexan-1-ol]	
	0.1		0.1		0.3				0.03		CN1CCC(Oc2cnc(-c3cnc(Nc4ccnc(-c5cnn(S(=O)(=O)C6CC6)c5)n4)cc3N[C@H]3CC[C@@](C)(O)CC3)cn2)CC1 [Example 145, (1s,4s)-4-((2-((2-(1-(Cyclopropylsulfonyl)-1H-pyrazol-4-yl)pyrimidin-4-yl)amino)-5-(5-((1-methylpiperidin-4-yl)oxy)pyrazin-2-yl)pyridin-4-yl)amino)-1-methylcyclohexan-1-ol]	
										2.9	C[C@]1(O)CC[C@@H](Nc2cc(Nc3ccnc(-c4cnn(S(=O)(=O)C5CC5)c4)n3)ncc2-c2ccc(S(=O)(=O)N3CCOCC3)cn2)CC1 [Example 182, (1s,4s)-4-((6′-((2-(1-(Cyclopropylsulfonyl)-1H-pyrazol-4-yl)pyrimidin-4-yl)amino)-5-(morpholinosulfonyl)-[2,3′-bipyridin]-4′-yl)amino)-1-methylcyclohexan-1-ol]	IC50 (EGFR del19/T790M/C797S; [15]): 6.4 nM; IC50 (EGFR L858R/C797S; [16]): 0.9 nM; IC50 (EGFR L858R/C797S; IC50 L858R/C797S, 100 μM ATP): 3.5 nM; IC50 (EGFR del19/C797S; IC50 del19/C797S, 100 μM ATP): 3.7 nM; IC50 (EGFR wildtype; IC50 WT, 100 μM ATP): > 10000 nM

Continued, molecule first:

SMILES	IC50 (EGFR del19/T790M/C797S; [1]) [nM]	IC50 (EGFR del19/T790M/C797S; [2]) [nM]	IC50 (EGFR L858R/C797S; [3]) [nM]	IC50 (EGFR L858R/C797S; [4]) [nM]	IC50 (EGFR del19/C797S; [5]) [nM]	IC50 (EGFR del19/C797S; [6]) [nM]	IC50 (EGFR wildtype; [7]) [nM]	IC50 (EGFR wildtype; [8]) [nM]	IC50 (EGFR L858R/T790M/C797S; [9]) [nM]	IC50 (EGFR L858R/T790M/C797S; [10]) [nM]	IC50 (EGFR del19/T790M/C797S; [11]) [nM]	further results
CN1CCN(Cc2ccc(-c3cnc(Nc4ccnc(-c5cnn(S(=O)(=O)C6CC6)c5)n4)cc3N3CCC(C)(CO)CC3)nc2)CC1 [Example 1, (1-(6′-((2-(1-(Cyclopropylsulfonyl)-1H-pyrazol-4-yl)pyrimidin-4-yl)amino)-5-((4-methylpiperazin-1-yl)methyl)-[2,3′-bipyridin]-4′-yl)-4-methylpiperidin-4-yl)methanol]	0.8	1.2	223	10.5	52.3	37.5	> 10000	212	1.3	0.4		
CN1CCN(Cc2ccc(-c3cnc(Nc4ccnc(-c5cnn(S(=O)(=O)C6CC6)c5)n4)cc3N[C@H]3CC[C@](O)(CO)CC3)nc2)CC1 [Example 11, (1s,4s)-4-((6′-((2-(1-(Cyclopropylsulfonyl)-1H-pyrazol-4-yl)pyrimidin-4-yl)amino)-5-((4-methylpiperazin-1-yl)methyl)-[2,3′-bipyridin]-4′-yl)amino)-1-(hydroxymethyl)cyclohexan-1-ol]	0.1		2.1	0.4	0.4	0.2	586	1.4	0.2	0.1		
CC(C)(O)c1ccc(-c2cnc(Nc3ccnc(-c4cnn(S(=O)(=O)C5CC5)c4)n3)cc2NC2CCN(CCF)CC2)nc1 [Example 176, 2-(6′-((2-(1-(Cyclopropylsulfonyl)-1H-pyrazol-4-yl)pyrimidin-4-yl)amino)-4′-((1-(2-fluoroethyl)piperidin-4-yl)amino)-[2,3′-bipyridin]-5-yl)propan-2-ol]											0.2	IC50 (EGFR del19/C797S; [12]): 5.5 nM; IC50 (EGFR wildtype; [13]): 43.4 nM; IC50 (EGFR L858R/T790M/C797S; [14]): 0.4 nM
CC(C)(O)[C@H]1CC[C@@H](Nc2cc(Nc3ccnc(-c4cnn(S(=O)(=O)C5CC5)c4)n3)ncc2-c2ccc(OCCO)cn2)CC1 [Example 207, 2-((1s,4s)-4-((6′-((2-(1-(Cyclopropylsulfonyl)-1H-pyrazol-4-yl)pyrimidin-4-yl)amino)-5-(2-hydroxyethoxy)-[2,3′-bipyridin]-4′-yl)amino)cyclohexyl)propan-2-ol]											1.3	IC50 (EGFR del19/T790M/C797S; [15]): 1.6 nM; IC50 (EGFR L858R/C797S; [16]): 1 nM; IC50 (EGFR L858R/C797S; IC50 L858R/C797S, 100 μM ATP): 14 nM; IC50 (EGFR wildtype; [13]): 3.8 nM; IC50 (EGFR wildtype; IC50 WT, 100 μM ATP): 1790 nM; IC50 (EGFR L858R/T790M/C797S; [14]): 0.3 nM; IC50 (EGFR L858R/T790M/C797S; IC50 L858R/T790M/C797S, 100 μM ATP): 0.8 nM
CC(C)Nc1cc(Nc2ccnc(-c3cnn(S(=O)(=O)C4CC4)c3)n2)ncc1-c1ccc(C(C)(O)C(F)(F)F)cn1 (stereo not shown) [Example 295, 2-(6′-((2-(1-(Cyclopropylsulfonyl)-1H-pyrazol-4-yl)pyrimidin-4-yl)amino)-4′-(isopropylamino)-[2,3′-bipyridin]-5-yl)-1,1,1-trifluoropropan-2-ol]											10.4	IC50 (EGFR L858R/C797S; [16]): 26.5 nM; IC50 (EGFR del19/C797S; [12]): 49.2 nM; IC50 (EGFR wildtype; [13]): 44.7 nM
CN1CCC(Oc2ccc(-c3cnc(Nc4nc(-c5cnn(S(=O)(=O)C6CC6)c5)ncc4F)cc3N[C@H]3CC[C@@](C)(O)CC3)nc2)CC1 [Example 300, (1s,4s)-4-((6′-((2-(1-(Cyclopropylsulfonyl)-1H-pyrazol-4-yl)-5-fluoropyrimidin-4-yl)amino)-5-((1-methylpiperidin-4-yl)oxy)-[2,3′-bipyridin]-4′-yl)amino)-1-methylcyclohexan-1-ol]											0.3	IC50 (EGFR L858R/C797S; [16]): 0.2 nM; IC50 (EGFR del19/C797S; [12]): 0.4 nM; IC50 (EGFR L858R/T790M/C797S; [14]): 0.1 nM
